Experimental data as given in PubChem BioAssay (NCI).
Several values for one entry are separate records, joined by “and”; a condition that tells them apart may be missing. Equal entries are not always repeated.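 Results reflect a 48-hour exposure of cells in 96-well plates to compound at five concentrations. The concentration for 50% growth inhibition is given as GI50. TGI: concentration producing complete growth inhibition.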

Experiments:
Test in all cases: growth of human tumour cells (NCI), 48 h
OVCAR-5 ovarian = tested on: OVCAR-5 ovarian
EKVX NSCLC = tested on: EKVX NSCLC
HCT-116 colon = tested on: HCT-116 colon
CCRF-CEM leukemia = tested on: CCRF-CEM leukemia
SK-MEL-2 melanoma = tested on: SK-MEL-2 melanoma
KM12 colon = tested on: KM12 colon
HCC-2998 colon = tested on: HCC-2998 colon
SNB-19 CNS = tested on: SNB-19 CNS
UACC-62 melanoma = tested on: UACC-62 melanoma
CAKI-1 renal = tested on: CAKI-1 renal
HOP-18 NSCLC = tested on: HOP-18 NSCLC
OVCAR-3 ovarian = tested on: OVCAR-3 ovarian
M19-MEL melanoma = tested on: M19-MEL melanoma
MALME-3M melanoma = tested on: MALME-3M melanoma
SN12C renal = tested on: SN12C renal
MOLT-4 leukemia = tested on: MOLT-4 leukemia
HCT-15 colon = tested on: HCT-15 colon
K-562 leukemia = tested on: K-562 leukemia
ACHN renal = tested on: ACHN renal
786-0 renal = tested on: 786-0 renal
OVCAR-8 ovarian = tested on: OVCAR-8 ovarian
HOP-62 NSCLC = tested on: HOP-62 NSCLC
IGROV1 ovarian = tested on: IGROV1 ovarian
SF-295 CNS = tested on: SF-295 CNS
UACC-257 melanoma = tested on: UACC-257 melanoma
LOX IMVI melanoma = tested on: LOX IMVI melanoma
RXF-631 renal = tested on: RXF-631 renal
SNB-78 CNS = tested on: SNB-78 CNS
UO-31 renal = tested on: UO-31 renal
A498 renal = tested on: A498 renal
NCI-H460 lung = tested on: NCI-H460 lung
HOP-92 NSCLC = tested on: HOP-92 NSCLC
NCI-H23 lung = tested on: NCI-H23 lung
COLO 205 colon = tested on: COLO 205 colon
SNB-75 CNS = tested on: SNB-75 CNS
OVCAR-4 ovarian = tested on: OVCAR-4 ovarian
RXF 393 renal = tested on: RXF 393 renal
U251 CNS = tested on: U251 CNS
M14 melanoma = tested on: M14 melanoma
HL-60(TB) leukemia = tested on: HL-60(TB) leukemia
SK-MEL-5 melanoma = tested on: SK-MEL-5 melanoma
HT29 colon = tested on: HT29 colon
TK-10 renal = tested on: TK-10 renal
SK-MEL-28 melanoma = tested on: SK-MEL-28 melanoma
SF-268 CNS = tested on: SF-268 CNS
DMS 273 small cell lung = tested on: DMS 273 small cell lung
DMS 114 small cell lung = tested on: DMS 114 small cell lung
SK-OV-3 ovarian = tested on: SK-OV-3 ovarian
SW-620 colon = tested on: SW-620 colon
SF-539 CNS = tested on: SF-539 CNS
NCI-H226 lung = tested on: NCI-H226 lung
DLD-1 colon = tested on: DLD-1 colon
A549 NSCLC = tested on: A549 NSCLC
RPMI-8226 leukemia = tested on: RPMI-8226 leukemia
MDA-MB-435 = tested on: MDA-MB-435
PC-3 prostate = tested on: PC-3 prostate
MDA-N = tested on: MDA-N
KM20L2 colon = tested on: KM20L2 colon
SR leukemia = tested on: SR leukemia
MCF7 breast = tested on: MCF7 breast
MDA-MB-231 breast = tested on: MDA-MB-231 breast
NCI-H522 lung = tested on: NCI-H522 lung
LXFL 529 NSCLC = tested on: LXFL 529 NSCLC

Work on `O=C1CCC(O)=C1N=Nc1cc(Cl)cc(Cl)c1` yielded a TGI (OVCAR-5 ovarian) of over 100 µM, a TGI (EKVX NSCLC) of over 100 µM and a TGI (HCT-116 colon) of over 100 µM. The TGI (CCRF-CEM leukemia) was over 100 µM, the TGI (SK-MEL-2 melanoma) was over 100 µM and the TGI (KM12 colon) was over 100 µM. For the same compound, the TGI (HCC-2998 colon) was over 100 µM, the TGI (SNB-19 CNS) was over 100 µM and the TGI (UACC-62 melanoma) was over 100 µM. For the same compound, the TGI (CAKI-1 renal) was over 100 µM, the TGI (HOP-18 NSCLC) was over 100 µM and the TGI (OVCAR-3 ovarian) was 98.2 µM. It also gave a TGI (M19-MEL melanoma) of over 100 µM, a TGI (MALME-3M melanoma) of over 100 µM and a TGI (SN12C renal) of over 100 µM. For the same compound, the TGI (MOLT-4 leukemia) was over 100 µM, the TGI (HCT-15 colon) was over 100 µM and the TGI (K-562 leukemia) was over 100 µM. It also gave a TGI (ACHN renal) of over 100 µM, a TGI (786-0 renal) of over 100 µM and a TGI (OVCAR-8 ovarian) of over 100 µM. The TGI (HOP-62 NSCLC) was over 100 µM, the TGI (IGROV1 ovarian) was over 100 µM and the TGI (SF-295 CNS) was over 100 µM. The TGI (UACC-257 melanoma) was over 100 µM, the TGI (LOX IMVI melanoma) was over 100 µM and the TGI (RXF-631 renal) was over 100 µM. It also gave a TGI (SNB-78 CNS) of over 100 µM, a TGI (UO-31 renal) of over 100 µM and a TGI (A498 renal) of 91 µM. The TGI (NCI-H460 lung) was over 100 µM, the TGI (HOP-92 NSCLC) was over 100 µM and the TGI (NCI-H23 lung) was over 100 µM. It also gave a TGI (COLO 205 colon) of over 100 µM, a TGI (SNB-75 CNS) of over 100 µM and a TGI (OVCAR-4 ovarian) of over 100 µM. It also gave a TGI (RXF 393 renal) of over 100 µM, a TGI (U251 CNS) of over 100 µM and a TGI (M14 melanoma) of over 100 µM. The TGI (HL-60(TB) leukemia) was over 100 µM, the TGI (SK-MEL-5 melanoma) was over 100 µM and the TGI (HT29 colon) was over 100 µM. It also gave a TGI (TK-10 renal) of over 100 µM, a TGI (SK-MEL-28 melanoma) of over 100 µM and a TGI (SF-268 CNS) of over 100 µM. It also gave a TGI (DMS 273 small cell lung) of over 100 µM, a TGI (DMS 114 small cell lung) of over 100 µM and a TGI (SK-OV-3 ovarian) of over 100 µM. It also gave a TGI (SW-620 colon) of over 100 µM, a TGI (SF-539 CNS) of over 100 µM and a TGI (NCI-H226 lung) of over 100 µM. The TGI (DLD-1 colon) was over 100 µM, the TGI (A549 NSCLC) was over 100 µM and the TGI (RPMI-8226 leukemia) was over 100 µM.

`CN1CCN(CCn2c3c4ccccc4ccc3c3oc(=O)c4ccccc4c32)CC1` was tested, and the TGI (OVCAR-5 ovarian) was 10.4 µM, the TGI (EKVX NSCLC) was 25.5 µM and the GI50 (HCT-116 colon) was 1.55 µM. For the same compound, the TGI (HCT-116 colon) was 2.88 µM and 3.79 µM, the TGI (MDA-MB-435) was 3.35 µM and the TGI (CCRF-CEM leukemia) was 3.2 µM and 3.94 µM. For the same compound, the TGI (SK-MEL-2 melanoma) was 27.7 µM, the GI50 (KM12 colon) was 2.13 µM and the TGI (KM12 colon) was 4.54 µM and 6.56 µM. For the same compound, the GI50 (HCC-2998 colon) was 4.22 µM, the TGI (HCC-2998 colon) was 3.74 µM and 18.7 µM and the GI50 (SNB-19 CNS) was 1.5 µM. For the same compound, the TGI (SNB-19 CNS) was 7.24 µM and 10.9 µM, the GI50 (UACC-62 melanoma) was 2.14 µM and the TGI (UACC-62 melanoma) was 4.74 µM and 5.11 µM. For the same compound, the TGI (CAKI-1 renal) was 16.7 µM, the TGI (HOP-18 NSCLC) was 25.1 µM and the TGI (OVCAR-3 ovarian) was 23.7 µM. It also gave a TGI (PC-3 prostate) of 4.59 µM, a TGI (MDA-N) of 2.95 µM and a TGI (M19-MEL melanoma) of 24.7 µM. For the same compound, the TGI (MALME-3M melanoma) was 29.3 µM, the GI50 (SN12C renal) was 4.44 µM and the TGI (SN12C renal) was 3.05 µM. The TGI (MOLT-4 leukemia) was 3.2 µM and 4.38 µM, the GI50 (HCT-15 colon) was 1.61 µM and the TGI (HCT-15 colon) was 3.21 µM and 7.92 µM. The TGI (K-562 leukemia) was 2.89 µM and 4.29 µM, the TGI (ACHN renal) was 7.42 µM and the GI50 (786-0 renal) was 1.96 µM. For the same compound, the TGI (786-0 renal) was 3.76 µM and 4.07 µM, the GI50 (OVCAR-8 ovarian) was 2.32 µM and the TGI (OVCAR-8 ovarian) was 5.13 µM and 3.37 µM. The GI50 (HOP-62 NSCLC) was 10.1 µM, the TGI (HOP-62 NSCLC) was 4.65 µM and 23.7 µM and the GI50 (IGROV1 ovarian) was over 1 µM. The TGI (IGROV1 ovarian) was > 1 µM and 31.1 µM, the GI50 (SF-295 CNS) was 1.88 µM and the TGI (SF-295 CNS) was 4.5 µM and 9.45 µM. The GI50 (UACC-257 melanoma) was over 1 µM, the TGI (UACC-257 melanoma) was > 1 µM and 2.96 µM and the TGI (KM20L2 colon) was 7.79 µM. For the same compound, the GI50 (LOX IMVI melanoma) was 1.61 µM and 4.84 µM, the TGI (RXF-631 renal) was 17.8 µM and the TGI (SNB-78 CNS) was 16.4 µM. It also gave a TGI (SR leukemia) of 3.13 µM, a GI50 (UO-31 renal) of 3.08 µM and a TGI (UO-31 renal) of 11.9 µM. It also gave a GI50 (A498 renal) of 18.7 µM, a TGI (A498 renal) of 38.3 µM and a GI50 (NCI-H460 lung) of 1.46 µM. The TGI (NCI-H460 lung) was 4.09 µM and 2.95 µM, the GI50 (HOP-92 NSCLC) was 3.44 µM and the TGI (HOP-92 NSCLC) was 17 µM. For the same compound, the GI50 (NCI-H23 lung) was 1.92 µM, the TGI (NCI-H23 lung) was 3.72 µM and 15.7 µM and the GI50 (COLO 205 colon) was 2 µM. For the same compound, the TGI (COLO 205 colon) was 3.4 µM and 5.14 µM, the TGI (MCF7 breast) was 3.03 µM and the TGI (SNB-75 CNS) was 16.6 µM. It also gave a TGI (MDA-MB-231 breast) of 3.59 µM, a TGI (OVCAR-4 ovarian) of 6.85 µM and a GI50 (RXF 393 renal) of 5.75 µM. For the same compound, the TGI (RXF 393 renal) was > 1 µM and 19.9 µM, the TGI (U251 CNS) was 6.25 µM and 6.92 µM and the GI50 (M14 melanoma) was 1.94 µM. The TGI (M14 melanoma) was 3.43 µM and 3.29 µM, the TGI (HL-60(TB) leukemia) was 3.47 µM and the GI50 (NCI-H522 lung) was 1.68 µM. The TGI (NCI-H522 lung) was 3.29 µM and 10.4 µM, the TGI (SK-MEL-5 melanoma) was 3.41 µM and the GI50 (HT29 colon) was 1.65 µM. For the same compound, the TGI (HT29 colon) was 3.3 µM and 2.71 µM, the TGI (LXFL 529 NSCLC) was 8.07 µM and the TGI (TK-10 renal) was 22.5 µM. For the same compound, the GI50 (SK-MEL-28 melanoma) was 1.99 µM, the TGI (SK-MEL-28 melanoma) was 3.47 µM and 9.37 µM and the GI50 (SF-268 CNS) was 5.03 µM. It also gave a TGI (SF-268 CNS) of 14 µM, a TGI (DMS 114 small cell lung) of 3.84 µM and a TGI (SK-OV-3 ovarian) of 27.4 µM. The TGI (SW-620 colon) was 4.29 µM and 5.33 µM, the TGI (SF-539 CNS) was 3.47 µM and 3.08 µM and the TGI (NCI-H226 lung) was 33.5 µM. The TGI (DLD-1 colon) was 6.13 µM, the GI50 (A549 NSCLC) was 2.91 µM and the TGI (A549 NSCLC) was 8.92 µM and 8.94 µM. For the same compound, the GI50 (RPMI-8226 leukemia) was 1.84 µM and the TGI (RPMI-8226 leukemia) was 3.79 µM and 15 µM.
